Test results: patent US5929070A (Eli Lilly and Company, priority 1997, dated 1999)

Tests used:
[1] = system: migraine pain; experiment: Utility tests for migraine analgesic activity (mouse writhing, acetic acid-induced writhing, protein extravasation and related tests); type: in vivo, mice; rats; guinea pigs; rabbits; settings: summary statement for the utility tests, no values given
[2] = system: muscarinic cholinergic receptor; experiment: pharmacological studies, muscarinic cholinergic receptor activity
[3] = system: 5-HT1C receptor; experiment: pharmacological studies, 5-HT1C receptor activity

## Cc1cc2c(s1)Nc1ccccc1N=C2N1CCN(C)CC1 [olanzapine, 2-methyl-4-(4-methyl-1-piperazinyl)-10H-thieno[2,3-b][1,5]benzodiazepine]
[1]
  migraine pain analgesic effect: can provide a significant migraine pain analgesic effect
[2]
  muscarinic cholinergic receptor activity: has muscarinic cholinergic receptor activity
[3]
  activity at the 5-HT1C receptor: active
